Experimental findings from patent US20220202052A1, “AROMATIC ALKAMIDES AND METHODS OF USE THEREOF IN TASTE MODULATION” (INTERNATIONAL FLAVORS & FRAGRANCES INC., priority 2019, published 2022) are described below.

Each structure is given as a SMILES string.

Holding throughout (type): in vivo, human
Experiment [1] in a line: Sensory analysis of aromatic alkamide fractions by trained taste panel. Particulars: 0.5 ppm in 4% pea protein isolate solution. On the procedure: Sensory analysis of the aromatic alkamides was carried out. Specifically, each isolated fraction, corresponding to each of the aromatic alkamides in Table 7 (samples 14 to 21) (0.5 ppm), was added to a 4% pea protein isolate solution and the ability of the fraction to mask protein off-taste, bitterness, and/or astringency was assessed by a trained taste panel.

The nature of experiment [2]: Trained taste panel, individual alkamides and blend vs ethanol extract. Particulars: 5% pea protein isolate with 200 μl ethanol, levels per sample in Table 12; for Liking Score: 1 is best, 10 is worst. On the procedure:
Additional compositions were prepared (Table 12) and assessed by a trained taste panel for taste modulating activity as compared to an ethanol extract of L. meyenii. The protein control sample was a 5% pea protein isolate solution with 200 μl of ethanol added thereto.

The nature of experiment [3]: Modulation of umami perception, trained panel. The settings on record: 0.5 ppm in 0.4% Chicken Bouillon solution. Here is the method:
The ability of L. meyenii extracts and fractions thereof to modulate umami flavors was determined by adding 25 ppm of an ethanolic extract of L. meyenii root (Example 1), 2 ppm of an ethyl acetate layer of a crude ethanolic extract, or 0.5 ppm of a fraction enriched in N-benzyloctadecanamide to a 0.4% Chicken Bouillon solution (Knorr Chicken Bouillon). Sensory analyses of the above-referenced compositions were carried out by a trained panel, the results of which are presented in Table 10.

Take `CCCCCCCCC/C=C/C=C/C(=O)CCCC(=O)NCc1ccccc1` [Macamide 2]: in experiment [1], the “Sensory taste in 4% protein base” value is on record as “Good masking”. In experiment [2], the “Off Taste: Astringent (intensity)” value worked out at 2, the “Off Taste: Beany (intensity)” value is reported as 5, the “Off Taste: Bitter (intensity)” value is listed as 3 and the “Off Taste: Burnt (intensity)” value was 0. Besides, in experiment [2], the “Off Taste: Chalky (intensity)” value stood at 2, the “Off Taste: Earthy (intensity)” value is on record as 2, the “Off Taste: Fishy (intensity)” value was 0 and the “Off Taste: Gritty (intensity)” value is 2. In addition, in experiment [2], the “Off Taste: Metallic/Unpleasant (intensity)” value is recorded as 1, the “Off Taste: Nutty (intensity)” value was determined as 2, the “Off Taste: Sour (intensity)” value came out at 3 and the “Liking Score” value was 2.
Consider `CCCCCCCC/C=C\CCCCCCCC(=O)NCc1ccccc1` [N-Benzyloleamide], for which, in experiment [1], the “Sensory taste in 4% protein base” value was “Little masking”. Also, in experiment [2], the “Off Taste: Astringent (intensity)” value was determined as 4, the “Off Taste: Beany (intensity)” value is given as 5, the “Off Taste: Bitter (intensity)” value turned out to be 2 and the “Off Taste: Burnt (intensity)” value is 0. In addition, in experiment [2], the “Off Taste: Chalky (intensity)” value is 6, the “Off Taste: Earthy (intensity)” value turned out to be 2, the “Off Taste: Fishy (intensity)” value is given as 0 and the “Off Taste: Gritty (intensity)” value is given as 4. Also, in experiment [2], the “Off Taste: Metallic/Unpleasant (intensity)” value was 2, the “Off Taste: Nutty (intensity)” value worked out at 2, the “Off Taste: Sour (intensity)” value worked out at 2 and the “Liking Score” value is given as 2.
On to `CCCCC/C=C\C/C=C\CCCCCCCC(=O)NCc1ccccc1` [N-Benzyl linoleamide, N-Benzyllinoleamide], for which the “Sensory taste in 4% protein base” value in experiment [1] was “Little masking”.
Turning to `CC/C=C\C/C=C\C/C=C\CCCCCCCC(=O)NCc1ccccc1` [N-Benzyl linolenamide, N-Benzyllinolenamide], the “Sensory taste in 4% protein base” value in experiment [1] is recorded as “Moderate masking”.
Consider `CCCCCCCCCCCCCCCCCC(=O)NCc1ccccc1` [N-Benzyloctadecanamide, N-Benzyl octadecanamide], for which the “Chicken Bouillon sensory (umami modulation)” value in experiment [3] was “Showed some enhancement”. In addition, in experiment [2], the “Off Taste: Astringent (intensity)” value is reported as 2, the “Off Taste: Beany (intensity)” value came to 3, the “Off Taste: Bitter (intensity)” value is on record as 2 and the “Off Taste: Burnt (intensity)” value is 0. For the same compound, in experiment [2], the “Off Taste: Chalky (intensity)” value stood at 2, the “Off Taste: Earthy (intensity)” value amounted to 2, the “Off Taste: Fishy (intensity)” value came to 0 and the “Off Taste: Gritty (intensity)” value is listed as 2. Also, in experiment [2], the “Off Taste: Metallic/Unpleasant (intensity)” value was determined as 2, the “Off Taste: Nutty (intensity)” value is recorded as 2, the “Off Taste: Sour (intensity)” value is recorded as 2 and the “Liking Score” value is reported as 1.
On to `CCCCCCCCCCCCCCCC(=O)NCc1ccccc1` [Macamide 1, N-benzylhexadecanamide], for which, in experiment [2], the “Off Taste: Astringent (intensity)” value is recorded as 2, the “Off Taste: Beany (intensity)” value worked out at 3, the “Off Taste: Bitter (intensity)” value is 2 and the “Off Taste: Burnt (intensity)” value came out at 0. In experiment [2], the “Off Taste: Chalky (intensity)” value was found to be 2, the “Off Taste: Earthy (intensity)” value is reported as 2, the “Off Taste: Fishy (intensity)” value was determined as 0 and the “Off Taste: Gritty (intensity)” value worked out at 2. In addition, in experiment [2], the “Off Taste: Metallic/Unpleasant (intensity)” value is recorded as 1, the “Off Taste: Nutty (intensity)” value is 0, the “Off Taste: Sour (intensity)” value came to 2 and the “Liking Score” value worked out at 1.
